Some results are limits rather than exact numbers.

The species named for data set [1] is Homo sapiens. The experiment in a line: Selectivity index, ratio of IC50 for human A3 adenosine receptor expressed in HEK293 cell membranes to IC50 for human A2B adenosine receptor expressed in HEK293 cell membranes. It counts as cell-based.
The species named for data set [2] is Homo sapiens. The data set is described as follows: Selectivity index, ratio of IC50 for human A2A adenosine receptor expressed in HEK293 cell membranes to IC50 for human A2B adenosine receptor expressed in HEK293 cell membranes. It counts as cell-based.
For the next data set, the target named is T1, Adenosine receptor A2b (Homo sapiens, UniProt P29275).
T1 sequence (P29275 whole entry): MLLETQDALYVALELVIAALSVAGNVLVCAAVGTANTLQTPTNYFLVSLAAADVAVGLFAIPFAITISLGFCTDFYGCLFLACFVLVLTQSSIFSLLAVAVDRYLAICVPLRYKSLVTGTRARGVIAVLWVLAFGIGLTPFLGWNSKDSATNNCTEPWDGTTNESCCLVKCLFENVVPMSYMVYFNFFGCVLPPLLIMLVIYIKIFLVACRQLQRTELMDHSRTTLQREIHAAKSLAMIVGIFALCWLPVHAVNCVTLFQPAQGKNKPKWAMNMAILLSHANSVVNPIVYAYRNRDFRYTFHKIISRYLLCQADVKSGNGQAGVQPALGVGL
The experiment in a line: Displacement of [3H]DPCPX from human A2B adenosine receptor expressed in HEK293 cell membranes after 60 mins by radioligand displacement assay.

A short description of data set [3]: Intrinsic clearance in rat hepatocytes by MS/MS analysis. It is filed as ADME, cell-based, Hepatocyte. To be noted: read-out: CLH (converted).
Data set [4] is filed under the species Homo sapiens. The data set is described as follows: Selectivity index, ratio of IC50 for human A1 adenosine receptor expressed in CHO cell membranes to IC50 for human A2B adenosine receptor expressed in HEK293 cell membranes. It counts as cell-based.

For the compound `CCN(CCO)C(=O)c1sc2c(c1C)c(=O)n(CC)c(=O)n2CCC(F)(F)F`, the figures for the Ratio IC50 in the data set listed under Homo sapiens [1], in the data set filed under Homo sapiens [2] and in the data set listed under Homo sapiens [4] were 130, 21 and 13, respectively. Further, at Adenosine receptor A2b, the IC50 was determined as 50 nM. Besides, in data set [3], the predicted hepatic clearance is 40 mL/min/kg.

Regarding `CCN(CC)C(=O)c1sc2c(c1N)c(=O)n(C)c(=O)n2C`, the values for the Ratio IC50 in the data set listed under Homo sapiens [1], in the data set filed under Homo sapiens [2] and in the data set listed under Homo sapiens [4] were 0.61, 0.73 and 0.62, respectively. For the same compound, the IC50 on Adenosine receptor A2b is > 10000 nM. Also, the predicted hepatic clearance in data set [3] is 53.3 mL/min/kg.

Consider `COCCn1c(=O)n(CCc2ccccc2)c(=O)c2c(C)c(C(C)(O)C3CC3)sc21` (stereo not given), for which the Ratio IC50 in the data set filed under Homo sapiens [1] turned out to be 45; in the data set filed under Homo sapiens [2] it was 6; in the data set listed under Homo sapiens [4], 2. The half-inhibitory concentration (IC50) at Adenosine receptor A2b amounted to 150 nM. Besides, the predicted hepatic clearance in data set [3] was 66.7 mL/min/kg.

Turning to `COCCn1c(=O)n(CCc2ccccc2)c(=O)c2c(C)c(C(O)c3ccccc3)sc21` (stereo not given), the Ratio IC50 was 230 in the data set listed under Homo sapiens [1], 21 in the data set listed under Homo sapiens [2] and 1 in the data set listed under Homo sapiens [4]. The concentration for half-maximal inhibition (IC50) at Adenosine receptor A2b stood at 30 nM. Moreover, the predicted hepatic clearance in data set [3] was 68.3 mL/min/kg.

Regarding `Cc1csc2c1c(=O)n(CCc1cccnc1)c(=O)n2CCC(F)(F)F`, the values for the Ratio IC50 in the data set filed under Homo sapiens [1], in the data set listed under Homo sapiens [2] and in the data set listed under Homo sapiens [4] were 120, 21 and 40, respectively. This compound showed a concentration for half-maximal inhibition (IC50) on Adenosine receptor A2b of 55 nM. The predicted hepatic clearance in data set [3] is 66.7 mL/min/kg.

Consider `COCCn1c(=O)n(CCc2cccnc2)c(=O)c2c(C)csc21`, for which the Ratio IC50 in the data set filed under Homo sapiens [1] was determined as 23; in the data set filed under Homo sapiens [2], 29; in the data set listed under Homo sapiens [4], 39. This compound registered an IC50 at Adenosine receptor A2b of 280 nM. Moreover, in data set [3], the predicted hepatic clearance was 61.7 mL/min/kg.

For the compound `Cc1csc2c1c(=O)n(CCc1ccccc1F)c(=O)n2CCC(F)(F)F`, the Ratio IC50 amounted to 91 in the data set filed under Homo sapiens [1], 86 in the data set listed under Homo sapiens [2] and 36 in the data set filed under Homo sapiens [4]. The same compound registered an IC50 at Adenosine receptor A2b of 73 nM. Moreover, the predicted hepatic clearance in data set [3] is 68.3 mL/min/kg.

As to `Cc1csc2c1c(=O)n(CCc1ccccc1)c(=O)n2Cc1cnc[nH]1`, the values for the Ratio IC50 in the data set listed under Homo sapiens [1], in the data set listed under Homo sapiens [2] and in the data set listed under Homo sapiens [4] were 5, 8 and 3, respectively. Also, on Adenosine receptor A2b, the IC50 was found to be 1300 nM. For the same compound, the predicted hepatic clearance in data set [3] is 46.7 mL/min/kg.

For `COCCn1c(=O)n(CCc2ccccc2)c(=O)c2c(C)c(C(O)C3CC3)sc21` (stereo not given), the values for the Ratio IC50 in the data set listed under Homo sapiens [1], in the data set filed under Homo sapiens [2] and in the data set listed under Homo sapiens [4] were 480, 11 and 10, respectively. The same compound returned an IC50 on Adenosine receptor A2b of 14 nM. The predicted hepatic clearance in data set [3] is 68.3 mL/min/kg.

Take `COCCn1c(=O)[nH]c(=O)c2c(C)csc21`: the Ratio IC50 in the data set listed under Homo sapiens [1] is 0.61 to 1; in the data set filed under Homo sapiens [2], 1; in the data set listed under Homo sapiens [4], 1. In addition, on Adenosine receptor A2b, the 50% inhibitory concentration (IC50) is > 10000 nM. Moreover, in data set [3], the predicted hepatic clearance was 31.7 mL/min/kg.

Turning to `COCCn1c(=O)n(CCc2ccccc2)c(=O)c2c(C)c(Cc3c[nH]c(C)n3)sc21`, the figures for the Ratio IC50 in the data set filed under Homo sapiens [1], in the data set listed under Homo sapiens [2] and in the data set filed under Homo sapiens [4] were 750, 510 and 110, respectively. In addition, the IC50 on Adenosine receptor A2b is 8.8 nM. Moreover, the predicted hepatic clearance in data set [3] is 61.7 mL/min/kg.

For `CCN(CC(C)(C)O)C(=O)c1sc2c(c1C)c(=O)n(CC)c(=O)n2CCC(F)(F)F`, the Ratio IC50 stood at 170 in the data set filed under Homo sapiens [1], 19 in the data set filed under Homo sapiens [2] and 11 in the data set filed under Homo sapiens [4]. At Adenosine receptor A2b, this compound had an IC50 of 39 nM. In addition, in data set [3], the predicted hepatic clearance is 35 mL/min/kg.

Regarding `CCN(CC)C(=O)c1sc2c(c1C)c(=O)n(CCOC)c(=O)n2CCC(F)(F)F`, the Ratio IC50 in the data set filed under Homo sapiens [1] was 68; in the data set filed under Homo sapiens [2], 0.83; in the data set listed under Homo sapiens [4] it was 22. Also, on Adenosine receptor A2b, the half-inhibitory concentration (IC50) turned out to be 97 nM. Moreover, in data set [3], the predicted hepatic clearance is 60 mL/min/kg.

Consider `Cc1csc2c1c(=O)n(CCc1ccccc1)c(=O)n2CCC(F)(F)F`, for which the Ratio IC50 in the data set filed under Homo sapiens [1] came out at 120; in the data set listed under Homo sapiens [2] it was 81; in the data set filed under Homo sapiens [4] it was 25. Also, the half-maximal inhibitory concentration (IC50) at Adenosine receptor A2b is 56 nM. Also, the predicted hepatic clearance in data set [3] is 66.7 mL/min/kg.

Consider `CCN(CC)C(=O)c1sc2c(c1C)c(=O)n(CCc1ccccc1)c(=O)n2CCOC`, for which the results for the Ratio IC50 in the data set filed under Homo sapiens [1], in the data set listed under Homo sapiens [2] and in the data set listed under Homo sapiens [4] were 160, 3 and 23, respectively. At Adenosine receptor A2b, this compound displayed an IC50 of 42 nM. In data set [3], the predicted hepatic clearance was 66.7 mL/min/kg.

As to `CCn1c(=O)c2c(C)c(C(=O)N3CC(O)C3)sc2n(CCC(F)(F)F)c1=O`, the Ratio IC50 in the data set filed under Homo sapiens [1] stood at 32; in the data set listed under Homo sapiens [2] it was 7; in the data set listed under Homo sapiens [4], 8. Also, the IC50 on Adenosine receptor A2b stood at 200 nM. The predicted hepatic clearance in data set [3] is 6.83 to 10 mL/min/kg.

For `COCCn1c(=O)n(CCc2ccccc2)c(=O)c2c(C)c(Cc3nc[nH]c3C)sc21`, the Ratio IC50 in the data set filed under Homo sapiens [1] stood at 2800; in the data set listed under Homo sapiens [2], 180; in the data set filed under Homo sapiens [4], 93. Further, the IC50 on Adenosine receptor A2b was determined as 2.4 nM. Also, the predicted hepatic clearance in data set [3] is 66.7 mL/min/kg.

On to `COCCn1c(=O)n(CCc2ccccc2)c(=O)c2c(C)c(Cn3ccnc3)sc21`, for which the Ratio IC50 in the data set filed under Homo sapiens [1] stood at 530; in the data set listed under Homo sapiens [2], 120; in the data set filed under Homo sapiens [4], 33. At Adenosine receptor A2b, this compound came in with a half-inhibitory concentration (IC50) of 12 nM. In addition, in data set [3], the predicted hepatic clearance is 58.3 mL/min/kg.

On to `COCCn1c(=O)n(CCc2ccccc2)c(=O)c2c(C)csc21`, for which the results for the Ratio IC50 in the data set listed under Homo sapiens [1], in the data set listed under Homo sapiens [2] and in the data set listed under Homo sapiens [4] were 22, 37 and 9, respectively. Also, the IC50 at Adenosine receptor A2b worked out at 300 nM. For the same compound, the predicted hepatic clearance in data set [3] is 66.7 mL/min/kg.

The values above are taken from ChEMBL document CHEMBL4422615, “Novel non-xanthine antagonist of the A2B adenosine receptor: From HTS hit to lead structure” (Eur J Med Chem, 2019).
